Measurements taken from patent US8030547B2, “Gene coding for acetolactate synthase” (priority 2002, dated 2011).

Test system: Sr line resistant mutant rice culture cells
Assay: Growth of rice culture cells (relative wet weight of callus) in the presence of herbicide, Sr line
Type: cell-based, Oryza sativa var. Kinmaze
Procedure: Next, endosperm portions were removed from the callus induced on the medium, and then subculture was performed. Then, part of the obtained calli was sub-cultured, that is, cultured successively once per two weeks in a liquid medium (the composition is the same as in that shown in Table 3, but not supplemented with Gelrite) supplemented with 1 μM bispyribac-sodium (one type of PC herbicides). Two to 6 weeks later the culture cells started to wither. About 2 months later, a plurality of non-discolored cell masses that were thought to be conducting cell division were obtained from among culture cell populations most of which had died and became discolored brown. These cell masses were isolated and cultured, so that a plurality of cell lines that can proliferate in the presence of 2 μM bispyribac-sodium were obtained. […]
Approximately 1.5 g (wet weight) of the resistant mutant was transplanted into a 200 ml Erlenmeyer flask supplemented with 50 ml of a MS-2,4-D liquid medium and bispyribac-sodium at a certain concentration, followed by culturing at approximately 27° C. for a certain period. The wet weight of the callus was measured periodically. The relative amount of increase was determined based on the wet weight of the transplanted resistant mutant. In addition, the experiment was performed three times with different bispyribac-sodium concentrations, and the standard error was calculated. […]

Structure (SMILES)	growth of Sr line (relative weight) (group supplemented with 10 μM, day 8 or 12)	growth of Sr line on addition of herbicide (relative weight) (day 8 or 10)
COc1cc(OC)nc(Oc2cccc(Oc3nc(OC)cc(OC)n3)c2C(=O)O)n1 [bispyribac-sodium]	almost none of the growth	
COc1nc(C)nc(NC(=O)NS(=O)(=O)c2ccccc2Cl)n1 [chlorsulfuron]		not inhibited so much
